pIC50: −log10 of the molar value.
System: Plasmodium berghei
Test: Luciferase/luciferin-expressing antifolate-resistant parasites were used to infect a culture of HepG2 cells that were pre-incubated with compounds. Infected hepatocytes emit light due to the luciferase reaction. Assay results are presented as the percent inhibition of light emission compared to control. […]
Type: functional
Details: sporozoite; for IC90: read-out: LUCIFERASE INFECTION ASSAY - IC90
[1] = read-out: LUCIFERASE INFECTION ASSAY - IC50

Row | SMILES | IC90 [µM] | also measured
1 | COc1cccc(/C=C2\Oc3c(CN4CCN(C)CC4)c(O)cc(C)c3C2=O)c1 | > 8.37 | pIC50 [1]: < 5.08
2 | COc1cc(-c2cc3c(cn2)nc(NCc2cccc(C)c2)n3C)ccc1O | > 10 | pIC50 [1]: < 5.00
3 | Cc1cc(C(=O)CN2CCC(C(=O)Nc3ccc4c(c3)OCO4)CC2)c(C)n1Cc1cccs1 | > 10 | pIC50 (FFLUC_HILL_SLOPE 9.45, FFLUC_R_SQUARED 0.378, read-out: LUCIFERASE INFECTION ASSAY - IC50): < 5.00
4 | COc1ccc(CN2CCN(C(=O)c3ccc(-n4cccn4)cc3)CC2)cc1F | > 10 | pIC50 (HEPG2TOX_HILL_SLOPE 2.97, HEPG2TOX_R_SQUARED 0.899, PBLUC_HILL_SLOPE 2, PBLUC_R_SQUARED 0.568, read-out: LUCIFERASE INFECTION ASSAY - IC50): 5.46
5 | C=C(C)C(=O)Oc1cccc(Oc2c(F)c(F)c(-c3c(F)c(F)c(Oc4cccc(OC(=O)C(=C)C)c4)c(F)c3F)c(F)c2F)c1 | > 10 | pIC50 (FFLUC_HILL_SLOPE 16.5, FFLUC_R_SQUARED 0.83, read-out: LUCIFERASE INFECTION ASSAY - IC50): < 5.00
6 | CN(C)c1ccc(C(=O)Nc2cnc3ccccc3c2)cc1 | > 10 | pIC50 (FFLUC_HILL_SLOPE 4.08, FFLUC_R_SQUARED 0.429, HEPG2TOX_HILL_SLOPE 2.09, HEPG2TOX_R_SQUARED 0.742, PBLUC_HILL_SLOPE 0.628, PBLUC_R_SQUARED 0.448, read-out: LUCIFERASE INFECTION ASSAY - IC50): 6.26
7 | CC(NC(=S)N/N=C/c1cc(Cl)cc(Cl)c1O)c1ccccc1 (stereo not drawn) | 8.46 | pIC50 (PBLUC_HILL_SLOPE 1.69, PBLUC_R_SQUARED 0.56, read-out: LUCIFERASE INFECTION ASSAY - IC50): 5.64
8 | CCOC(=O)c1nc(-c2ccc([N+](=O)[O-])o2)no1 | > 13 | pIC50 [1]: < 4.89
9 | CC(C)c1ccc(/C=C2\CCn3c2nc(=O)c2ccccc23)cc1 | > 10.4 | pIC50 (PBLUC_HILL_SLOPE 2.01, PBLUC_R_SQUARED 0.333, read-out: LUCIFERASE INFECTION ASSAY - IC50): 5.38
10 | CCCNC(=O)c1c(NC(=O)c2cc(OC)cc(OC)c2)nc2ccccn12 | > 8.63 | pIC50 (PBLUC_HILL_SLOPE 11.4, PBLUC_R_SQUARED 0.597, read-out: LUCIFERASE INFECTION ASSAY - IC50): 5.14
11 | CCNc1ccc(C(=O)OCC)cc1NC(=O)c1cccc(N(C)C)c1 | 2.65 | pIC50 (HEPG2TOX_HILL_SLOPE 1.36, HEPG2TOX_R_SQUARED 0.981, PBLUC_HILL_SLOPE 2.44, PBLUC_R_SQUARED 0.636, read-out: LUCIFERASE INFECTION ASSAY - IC50): 5.97
12 | C/N=c1\scc(-c2ccccc2OC)n1/N=C/c1ccc[nH]1 | 0.0612 | pIC50 (PBLUC_HILL_SLOPE 6.06, PBLUC_R_SQUARED 0.259, read-out: LUCIFERASE INFECTION ASSAY - IC50): 7.37
13 | N#C/C(=C\c1cccc([N+](=O)[O-])c1)c1nn(-c2ccccc2)c(-n2cccc2)c1C#N | > 8.12 | pIC50 (PBLUC_HILL_SLOPE 2.16, PBLUC_R_SQUARED 0.645, read-out: LUCIFERASE INFECTION ASSAY - IC50): 5.25
14 | Cc1ccc(NC(=S)Nc2cccc(C(F)(F)F)c2)c(C)c1 | > 10.2 | pIC50 (PBLUC_HILL_SLOPE 13, PBLUC_R_SQUARED 0.213, read-out: LUCIFERASE INFECTION ASSAY - IC50): 5.01
15 | CC(C)(C)c1ccc(C(=O)Nc2cc(Cl)ccc2OC(=O)c2ccc(C(C)(C)C)cc2)cc1 | > 7.11 | pIC50 (PBLUC_HILL_SLOPE 0.69, PBLUC_R_SQUARED 0.715, read-out: LUCIFERASE INFECTION ASSAY - IC50): 6.26
16 | CCC(C)c1ccc(NC(=O)CN(Cc2ccccc2)S(=O)(=O)c2ccc(C)c(C)c2)cc1 (stereo not drawn) | > 10 | pIC50 [1]: < 5.00
17 | Oc1c(C(c2ccc(C(F)(F)F)cc2)N2CCCC2)cc(Cl)c2cccnc12 (stereo not drawn) | 2.26 | pIC50 (FFLUC_HILL_SLOPE 12.3, FFLUC_R_SQUARED 0.824, HEPG2TOX_HILL_SLOPE 1.2, HEPG2TOX_R_SQUARED 0.387, PBLUC_HILL_SLOPE 2.74, PBLUC_R_SQUARED 0.879, read-out: LUCIFERASE INFECTION ASSAY - IC50): 6.00
18 | COc1ccccc1C(=O)N(c1ccc(F)cc1)c1nc2ccccc2s1 | > 10 | pIC50 [1]: < 5.00
19 | COc1ccc(-c2cnc3sc(NCCc4ccncc4)nn23)cc1OC | 8.35 | pIC50 (HEPG2TOX_HILL_SLOPE 4.06, HEPG2TOX_R_SQUARED 0.383, PBLUC_HILL_SLOPE 12.9, PBLUC_R_SQUARED 0.15, read-out: LUCIFERASE INFECTION ASSAY - IC50): 5.15
20 | Cc1c(OCC(=O)NCc2ccccn2)ccc2c1oc(=O)c1ccccc12 | > 8.81 | pIC50 (FFLUC_HILL_SLOPE 12.1, FFLUC_R_SQUARED 0.777, PBLUC_HILL_SLOPE 13, PBLUC_R_SQUARED 0.252, read-out: LUCIFERASE INFECTION ASSAY - IC50): 5.09

Row | SMILES | IC90 [µM] | also measured
21 | CC(C)c1ccc(NC(=O)c2snc3ccc(Cl)cc23)cc1 | 6.63 | pIC50 (HEPG2TOX_HILL_SLOPE 2.78, HEPG2TOX_R_SQUARED 0.915, PBLUC_HILL_SLOPE 3.55, PBLUC_R_SQUARED 0.653, read-out: LUCIFERASE INFECTION ASSAY - IC50): 5.45
22 | O=C(c1ccc(Cn2cccn2)cc1)N(C/C=C/c1ccccc1)c1ccc2c(c1)OCCO2 | 5.09 | pIC50 (PBLUC_HILL_SLOPE 14.4, PBLUC_R_SQUARED 0.81, read-out: LUCIFERASE INFECTION ASSAY - IC50): 5.36
23 | CCC(Sc1ncnc2sc(C)c(C)c12)C(=O)Nc1cc(C)on1 (stereo not drawn) | > 10 | pIC50 (PBLUC_HILL_SLOPE 4.56, PBLUC_R_SQUARED 0.361, read-out: LUCIFERASE INFECTION ASSAY - IC50): 5.01
24 | O=C(NC1CC1)c1ccc(N2CCN(C(c3ccc(F)cc3)c3ccc(F)cc3)CC2)nc1 | > 10 | pIC50 (PBLUC_HILL_SLOPE 2.42, PBLUC_R_SQUARED 0.524, read-out: LUCIFERASE INFECTION ASSAY - IC50): 5.31
25 | NC1=NC(=O)C(Cc2ccc(OC(F)(F)F)cc2)S1 (stereo not drawn) | 1.02 | pIC50 (PBLUC_HILL_SLOPE 3.06, PBLUC_R_SQUARED 0.937, read-out: LUCIFERASE INFECTION ASSAY - IC50): 6.30
26 | CN(C)CCCOc1ccc(-c2nnc3ccc(-c4cccc(Cl)c4)cn23)cc1 | > 10 | pIC50 (HEPG2TOX_HILL_SLOPE 9.26, HEPG2TOX_R_SQUARED 0.159, PBLUC_HILL_SLOPE 2.15, PBLUC_R_SQUARED 0.0523, read-out: LUCIFERASE INFECTION ASSAY - IC50): 5.10
27 | Cc1noc(C)c1S(=O)(=O)N(Cc1ccc(C(=O)NC2CC2)cc1)C1CC1 | 3.5 | pIC50 (PBLUC_HILL_SLOPE 0.781, PBLUC_R_SQUARED 0.696, read-out: LUCIFERASE INFECTION ASSAY - IC50): 6.68
28 | CCOC(=O)C1=C(N)n2c(s/c(=C\c3ccc(OC)cc3)c2=O)=CC1c1ccc(OC)cc1 (stereo not drawn) | > 7.1 | pIC50 [1]: < 5.15
29 | Cc1n(C)c2c([n+]1C)C(=O)c1ccccc1C2=O | 0.128 | pIC50 (HEPG2TOX_HILL_SLOPE 0.401, HEPG2TOX_R_SQUARED 0.884, PBLUC_HILL_SLOPE 1.09, PBLUC_R_SQUARED 0.944, read-out: LUCIFERASE INFECTION ASSAY - IC50): 7.77
30 | CCOC(=O)c1c(C)[nH]c(C(=O)Nc2ncccc2C)c1C | > 10 | pIC50 (PBLUC_HILL_SLOPE 1.33, PBLUC_R_SQUARED 0.354, read-out: LUCIFERASE INFECTION ASSAY - IC50): 5.60
31 | COC(=O)C1C(c2ccc(N(C)C)cc2)C(C(=O)OC)S(=O)(=O)C(=NNc2ccc(OC)cc2[N+](=O)[O-])S1(=O)=O (stereo not drawn) | > 10 | pIC50 (FFLUC_HILL_SLOPE 2.66, FFLUC_R_SQUARED 0.775, read-out: LUCIFERASE INFECTION ASSAY - IC50): < 5.00
32 | Cn1c(Nc2ccccc2)nc2cnc(-c3ccc(N4CCOCC4)cc3)cc21 | > 10 | pIC50 [1]: 5.03
33 | CNc1nc2cnc(-c3cccc(Oc4ccccc4)c3)cc2n1-c1cccc(F)c1 | > 10 | pIC50 (FFLUC_HILL_SLOPE 5.28, FFLUC_R_SQUARED 0.776, PBLUC_HILL_SLOPE 4.98, PBLUC_R_SQUARED 0.188, read-out: LUCIFERASE INFECTION ASSAY - IC50): 5.10
34 | Cc1cc(C(=O)COC(=O)/C=C/c2cn(C)c(=O)n(C)c2=O)c(C)n1CCc1ccc(Cl)cc1 | > 10 | pIC50 (FFLUC_HILL_SLOPE 11.7, FFLUC_R_SQUARED 0.825, read-out: LUCIFERASE INFECTION ASSAY - IC50): < 5.00
35 | CCOC(=O)C1=C(C)NC(C)=C(C(=O)OCC)C1c1ccc(-c2cc(C(F)(F)F)cc(C(F)(F)F)c2)o1 | > 6.21 | pIC50 (FFLUC_HILL_SLOPE 13.3, FFLUC_R_SQUARED 0.16, read-out: LUCIFERASE INFECTION ASSAY - IC50): < 5.21
36 | CN1/C(=C\C(=O)CCCSc2nnc(-c3ccccc3)n2N)C(C)(C)c2ccccc21 | > 10 | pIC50 (FFLUC_HILL_SLOPE 2.28, FFLUC_R_SQUARED 0.541, HEPG2TOX_HILL_SLOPE 7.74, HEPG2TOX_R_SQUARED 0.566, PBLUC_HILL_SLOPE 1.71, PBLUC_R_SQUARED 0.591, read-out: LUCIFERASE INFECTION ASSAY - IC50): 5.44
37 | COc1cccc(-c2nc(-c3ccc(O)cc3O)cs2)c1OC | > 10 | pIC50 (HEPG2TOX_HILL_SLOPE 1.65, HEPG2TOX_R_SQUARED 0.767, read-out: LUCIFERASE INFECTION ASSAY - IC50): < 5.00
38 | Cc1ccc(NS(=O)(=O)c2ccc(C(=O)Nc3ncccc3O)cc2)cc1 | 0.462 | pIC50 (FFLUC_HILL_SLOPE 0.564, FFLUC_R_SQUARED 0.118, HEPG2TOX_HILL_SLOPE 3.99, HEPG2TOX_R_SQUARED 0.784, PBLUC_HILL_SLOPE 9.26, PBLUC_R_SQUARED 0.767, read-out: LUCIFERASE INFECTION ASSAY - IC50): 6.44
39 | O=C(Nc1ccc(-c2csc(N3CCOCC3)n2)cc1)c1cccc(F)c1 | > 10 | pIC50 [1]: < 5.00
